In assay [1] the test system is liver cancer cell line T2 HCC. The experiment in a line: Minimal effective concentration that elicits polyploidy, T2 HCC. To be noted: Mus musculus, read-out: MECP: Minimal effective concentration that elicits polyploidy. The assay is classed as cell-based.
Assay [2] deals with liver cancer cell line T2 HCC. Briefly: MTT assay of cellular proliferation, T2 HCC. The assay is classed as cell-based. The following applies: Mus musculus, read-out: EC50: Concentration that inhibits 50% of proliferation. An outline of the steps: (§1)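 Proliferation inhibition was scored by MTT reduction to formazan (A570) in cells cultured in 5% FBS DMEM at 37 °C. Dose range spanned 1 nM to 10 μM, with EC50 defined as 50% inhibition.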

The subject of assay [3] is lung cancer cell line NCI-H460. The experiment in a line: Minimal effective concentration that elicits polyploidy, NCI-H460. The assay is classed as cell-based, human.
Assay [4] concerns SW480. The experiment in a line: Minimal effective concentration that elicits polyploidy, SW480. Type of assay: cell-based. The following applies: Homo sapiens, read-out: MECP: Minimal effective concentration that elicits polyploidy.
The subject of assay [5] is prostate cancer cell line DU145. The experiment in a line: Minimal effective concentration that elicits polyploidy, DU145. Type of assay: cell-based, human.
The subject of assay [6] is lung cancer cell line NCI-H23. The experiment in a line: MTT assay of cellular proliferation, NCI-H23. The assay is classed as cell-based. The following applies: Homo sapiens, read-out: EC50: Concentration that inhibits 50% of proliferation. An outline of the steps: as §1
The subject of assay [7] is colon cancer cell line HCT116. Briefly: MTT assay of cellular proliferation, HCT116. The following applies: Homo sapiens, HCT-116, read-out: EC50: Concentration that inhibits 50% of proliferation. Type of assay: cell-based. The method, boiled down:
as §1
(In general: Tetrazolium dyes change colour on reduction, which living cells bring about.)

Assay [8] has as its system lung cancer cell line Calu-6. Briefly: Minimal effective concentration that elicits polyploidy, Calu-6. Type of assay: cell-based, human.
The subject of assay [9] is RPEMYC^H2B-GFP cells. Briefly: Mechanism-informed phenotypic screening assay (mitotic arrest, polyploidy; GE IN-Cell Analyzer 2000). Type of assay: cell-based. The following applies: 20 nM to 20 μM, 24, 48 or 72 hours, read-out: Min. Effective conc. for polyploidy (≥5%). An outline of the steps: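 RPEMYC^H2B-GFP cells expressing Histone 2B-EGFP were treated with compounds at 20 nM to 20 μM. Mitotic arrest and DNA content were imaged at 24, 48 or 72 h. Minimal effective concentrations eliciting polyploidy are given as letter bins.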

Assay [10] relates to lung cancer cell line Calu-6. The experiment in a line: MTT assay of cellular proliferation, Calu-6. The assay is classed as cell-based. To be noted: Homo sapiens, read-out: EC50: Concentration that inhibits 50% of proliferation. As to the method:
Six lung cancer cell lines (NCI-H23, NCI-H460, NCI-H596, NCI-H2170, Calu-6 and A549), two colon cancer cell lines (HCT116 and SW460), one breast cancer cell line MDA-MB-231, one gastric cancer cell line NCI-N87, one prostate cancer cell line DU145, one cervical cancer cell line Hela, and one glioblastoma cell line T98G were obtained from ATCC. The T2 HCC cell line was derived from a mouse liver cancer model initiated by a transgene of MYC (Reference). All cell lines were cultured in DMEM (Gibco, Cleveland, TN, USA) supplemented with 5% fetal bovine serum (Gibco), penicillin (100 U/mL)-streptomycin (100 μg/mL) (Gibco, Cat. No. 15140-122), 2 mM L-glutamine (Gibco, 200 mM solution, Cat. No. 25030081), and 1 mM sodium pyruvate (Gibco, 100 mM solution, Cat. No. 11360070) at 37° C. in a humidified incubator that was maintained at 5% CO2.
The MTT assay measures cellular metabolic activity as a proxy for cell viability and involves the conversion of the water-soluble yellow dye MTT [3-(4,5-dimethylthiazol-2-yl)-2,5-diphenyltetrazolium bromide] into an insoluble purple formazan by the action of mitochondrial reductase. Formazan is then solubilized and its concentration is determined by measuring the optical density (OD) value at a wavelength of 570 nm. The value is in proportional to the number of live cells with excellent linearity up to ˜10^6 cells per well. The MTT assay was used to determine the EC50 value, the concentration of a compound that leads to 50% inhibition of cellular proliferation. Briefly, cells were split when growing to the mid-Log phase. Cells in 100 μL of culture medium were seeded into each well of 96-well microplates and cultivated for 15˜24 hours to reach a confluence of 20˜30% and were then exposed to drugs at concentrations ranging from 1 nM to 10 μM. At the endpoint, 20 μL of a MTT stock solution in DMSO (5 mg/mL) was added to each well that contains […] of DMEM. The microplates were left in the cell culture incubator for 3˜4 h before subjected to solubilization and determination of formazan at A570 in a microplate reader (BioTek ELX808iu). […] Therefore, these compounds might hold a broad utility in the treatment of a large variety of human malignancies.

Assay [11] concerns colon cancer cell line HCT116. The experiment in a line: Minimal effective concentration that elicits polyploidy, HCT116. Type of assay: cell-based. The following applies: Homo sapiens, HCT-116, read-out: MECP: Minimal effective concentration that elicits polyploidy.

The values that follow come from US20240262803A1, “COMPOUNDS, COMPOSITIONS AND METHODS OF TREATING DISORDERS” (Chungdu Anticancer Bioscience Ltd, priority 2021, published 2024).

Consider `COC(=O)c1cc(OC)cc(Oc2ncccc2-c2ccnc(N)n2)c1` [Compound 23, Methyl 3-((3-(2-aminopyrimidin-4-yl)pyridin-2-yl)oxy)-5-methoxybenzoate], for which the minimal effective concentration was 0.001 to 1 µM in [1], 0.001 to 1 µM in assay [4], 1 µM in assay [9] and 0.001 to 1 µM in assay [11]. Moreover, the EC50 in [2] lay in the range of 1000 to 10000 nM; in assay [6], 1 to 1000 nM; in [7], 1 to 1000 nM; in assay [10], 1 to 1000 nM. Also, the “MECP: Minimal effective concentration that elicits polyploidy” value was “B (B: 1 μM < conc. ≤ 10 μM)” in assay [3], “A (A: 1 nM < conc. ≤ 1 μM)” in assay [5] and “A (A: 1 nM < conc. ≤ 1 μM)” in assay [8].

As to `COC(=O)c1cc(Oc2ncccc2-c2ccncc2)cc(C(=O)OC)c1` [Compound 1, Dimethyl 5-([3,4′-bipyridin]-2-yloxy)isophthalate], the minimal effective concentration in assay [1] was 0.001 to 1 µM; in assay [9], 1 µM; in assay [11], 0.001 to 1 µM. Besides, the EC50 in [2], in assay [6], in [7] and in assay [10] was 1 to 1000 nM throughout. Also, the “MECP: Minimal effective concentration that elicits polyploidy” value in [3] is reported as “B (B: 1 μM < conc. ≤ 10 μM)”; in [5], “A (A: 1 nM < conc. ≤ 1 μM)”; in assay [8] it was “A (A: 1 nM < conc. ≤ 1 μM)”.

With `COC(=O)c1cc(Oc2ncccc2-c2ccnc(N)n2)cc(C(=O)OC)c1` [Compound 21, dimethyl 5-((3-(2-aminopyrimidin-4-yl)pyridin-2-yl)oxy)isophthalate], the minimal effective concentration in [1] was 0.001 to 1 µM; in assay [9], 1 µM; in [11] it was 0.001 to 1 µM. The EC50 in assay [2], in assay [6], in [7] and in [10] was 1 to 1000 nM in each case. The “MECP: Minimal effective concentration that elicits polyploidy” value in [3] is “B (B: 1 μM < conc. ≤ 10 μM)”; in [5], “A (A: 1 nM < conc. ≤ 1 μM)”; in [8] it was “A (A: 1 nM < conc. ≤ 1 μM)”.

In the case of `COC(=O)c1cc(OC)cc(Oc2ncccc2-c2ccncc2)c1` [Compound 2, Methyl 3-([3,4′-bipyridin]-2-yloxy)-5-methoxybenzoate], the minimal effective concentration in [1] was 0.001 to 1 µM; in assay [4] it was 0.001 to 1 µM; in [9], 1 µM; in assay [11], 0.001 to 1 µM. The EC50 in assay [2], in [6], in assay [7] and in [10] was 1 to 1000 nM throughout. Also, the “MECP: Minimal effective concentration that elicits polyploidy” value was “B (B: 1 μM < conc. ≤ 10 μM)” in assay [3], “A (A: 1 nM < conc. ≤ 1 μM)” in assay [5] and “A (A: 1 nM < conc. ≤ 1 μM)” in [8].
